Usually MIC stands for the lowest concentration that inhibits growth of the organism.

The subject of assay [1] is Escherichia coli ATCC 25922. Put plainly: Minimal Inhibitory Concentration (MIC) assay, Escherichia coli ATCC 25922. The following applies: ATCC25922, 20 h, read-out: MIC Escherichia coli ATCC25922. In kind it is cell-based. As to the method:
(§1) The antibacterial activity of the compounds of the present invention was evaluated against the commonly used quality control strain Escherichia coli ATCC 25922 and the rifampin-resistant mutant strain Klebsiella pneumonia ATCC 43816. Both were originally derived from human clinical samples and are available from ATCC (American Type Culture Collection). The in vitro potency of compounds to inhibit Escherichia coli (ATCC 25922) and Klebsiella pneumonia (ATCC 43816) growth was assessed by the MIC (Minimal Inhibitory Concentration) broth dilution method. Specifically compound dilutions were prepared from 10 mM DMSO stock solutions as follows: i) serial 2-fold dilution in 20 μL DMSO were prepared in a master plate (Greiner, Cat No: 651201), ii) 180 μL sterile distilled water was added to each aliquot and iii) 10 μL diluted compounds were transferred into a new assay plate (Costar, 3599).
(§2) Vials of each test microorganisms were maintained frozen in the vapor phase of a liquid nitrogen freezer. Single-use frozen vials of the two strains Escherichia coli ATCC 25922 (KWIKSTIK, 0335K) and Klebsiella pneumonia ATCC 43816, with predetermined CFU/mL, were taken out from the freezer, thawed at room temperature, and diluted in Cation-Adjusted Mueller Hinton Broth (CAMHB) to achieve a final inoculum of 5×10^5 CFU/mL. 90 μL bacteria containing broth was dispensed to the assay plate containing the pre-dispensed compound dilutions and mixed by pipetting 5 times.
(§3) Then the assay plates were incubated for 20 hours at 35° C. in ambient air. Following incubation, the MIC (μg/mL), the lowest concentration of drug that inhibits visible growth of the microorganism was read with the help of a magnification mirror and recorded.

In assay [2] the test system is Klebsiella pneumonia ATCC 43816. Put plainly: Minimal Inhibitory Concentration (MIC) assay, Klebsiella pneumonia ATCC 43816. In kind it is cell-based. The following applies: Klebsiella pneumoniae, ATCC43816, 20 h, read-out: MIC Klebsiella pneumoniae ATCC43816. As to the method:
as §1, §2, §3

The structures appear in SMILES notation. Values after ≈ are worked out from the molar mass of the structure shown.

As for `O=C1CC(NC2CCNCC2)C2COc3cc(S(=O)(=O)N4CCN(c5cc(C(F)(F)[C@@H]6COCCO6)cc(Cl)n5)CC4)ccc3N12` (mixture of isomers) [Example 027, 7-[4-[6-Chloro-4-[difluoro-[rac-(2S)-1,4-dioxan-2-yl]methyl]-2-pyridyl]piperazin-1-yl]sulfonyl-3-(4-piperidylamino)-2,3,3a,4-tetrahydropyrrolo[2,1-c][1,4]benzoxazin-1-one], the values for the MIC in assay [1] and in assay [2] were 2.1 µg/mL (≈ 3.07 µM) and 2.14 µg/mL (≈ 3.13 µM), respectively. For `NC[C@@H]1OC(=O)N2c3ccc(S(=O)(=O)N4CCN(c5cc(C(F)(F)F)cc(Cl)n5)CC4)cc3OC[C@@H]12` (relative stereo) [Example 001] the same measures were 0.46 µg/mL (≈ 0.84 µM) and 0.46 µg/mL (≈ 0.84 µM). For `NC[C@@H]1OC(=O)N2c3ccc(S(=O)(=O)N4CCN(c5cc(S(=O)(=O)C6CC6)cc(Cl)n5)CC4)cc3OC[C@@H]12` (relative stereo) [Example 003] the same measures were 0.97 µg/mL (≈ 1.66 µM) and 1.94 µg/mL (≈ 3.32 µM). For `NC[C@@H]1OC(=O)N2c3ccc(S(=O)(=O)N4CCN(c5cc(S(=O)(=O)c6ccc(N)cc6)cc(Cl)n5)CC4)cc3OC[C@@H]12` (relative stereo) [Example 004], in that order: 0.52 µg/mL (≈ 0.819 µM) and 0.26 µg/mL (≈ 0.409 µM). For `NC[C@H]1OC(=O)N2c3ccc(S(=O)(=O)N4CCN(c5cc(S(=O)(=O)C6CC6)cc(Cl)n5)CC4)cc3OC[C@@H]12` (relative stereo) [Example 005], the MIC in assay [1] was 0.97 µg/mL (≈ 1.66 µM); in assay [2] it was 1 µg/mL (≈ 1.71 µM). For `NC[C@@H]1OC(=O)N2c3ccc(S(=O)(=O)N4CCN(c5cc(C(F)(F)C6C7COCC76)cc(Cl)n5)CC4)cc3OC[C@@H]12` (relative stereo) [Example 018] the same measures were 0.28 µg/mL (≈ 0.457 µM) and 0.28 µg/mL (≈ 0.457 µM). For `Cc1cc(C(F)(F)c2cc(Cl)nc(N3CCN(S(=O)(=O)c4ccc5c(c4)OC[C@H]4[C@H](CN)OC(=O)N54)CC3)c2)ccn1` (relative stereo) [Example 019], in that order: 0.29 µg/mL (≈ 0.467 µM) and 0.28 µg/mL (≈ 0.451 µM). For `O=C1O[C@@H](CO)[C@@H]2COc3cc(S(=O)(=O)N4CCN(c5cc(C(F)(F)[C@@H]6CNCCO6)cc(Cl)n5)CC4)ccc3N12` (relative stereo) [Example 050, trans-7-[4-[6-chloro-4-[difluoro-[(2S)-morpholin-2-yl]methyl]-2-pyridyl]piperazin-1-yl]sulfonyl-3-(hydroxymethyl)-3a,4-dihydro-3H-oxazolo[4,3-c][1,4]benzoxazin-1-one] the same measures were 0.48 µg/mL (≈ 0.779 µM) and 0.48 µg/mL (≈ 0.779 µM).

`CN1CCC(C(F)(F)c2cc(Cl)nc(N3CCN(S(=O)(=O)c4ccc5c(c4)OC[C@H]4[C@@H](CN)OC(=O)N54)CC3)c2)CC1` (stereo in doubt) [Example 010, cis-3-(aminomethyl)-7-[4-[6-chloro-4-[difluoro-(1-methyl-4-piperidyl)methyl]-2-pyridyl]piperazin-1-yl]sulfonyl-3a,4-dihydro-3H-oxazolo[4,3-c][1,4]benzoxazin-1-one]: the minimal inhibitory concentration (MIC) in assay [1] and in assay [2] was 0.98 µg/mL (≈ 1.56 µM) in each case.

Take `NC[C@H]1OC(=O)N2c3ccc(S(=O)(=O)N4CCN(c5cc(C(F)(F)C6COCCO6)cc(Cl)n5)CC4)cc3OC[C@H]12` (stereo in doubt) [Example 017, trans-3-(aminomethyl)-7-[4-[6-chloro-4-[1,4-dioxan-2-yl(difluoro)methyl]-2-pyridyl]piperazin-1-yl]sulfonyl-3a,4-dihydro-3H-oxazolo[4,3-c][1,4]benzoxazin-1-one]: the MIC in assay [1] and in assay [2] was 0.57 µg/mL (≈ 0.925 µM) throughout. Consider `CN1CC=C(C(F)(F)c2cc(Cl)nc(N3CCN(S(=O)(=O)c4ccc5c(c4)OC[C@H]4[C@@H](CN)OC(=O)N54)CC3)c2)CC1` (stereo in doubt) [Example 020, cis-3-(aminomethyl)-7-[4-[6-chloro-4-[difluoro-(1-methyl-3,6-dihydro-2H-pyridin-4-yl)methyl]-2-pyridyl]piperazin-1-yl]sulfonyl-3a,4-dihydro-3H-oxazolo[4,3-c][1,4]benzoxazin-1-one], for which the MIC in assay [1] and in assay [2] was 0.29 µg/mL (≈ 0.464 µM) each time. As for `O=C1O[C@H](CO)[C@@H]2COc3cc(S(=O)(=O)N4CCN(c5cc(C(F)(F)[C@H]6CNCCO6)cc(Cl)n5)CC4)ccc3N12` (stereo in doubt) [Example 032, cis-7-[4-[6-chloro-4-[difluoro-[(2R)-morpholin-2-yl]methyl]-2-pyridyl]piperazin-1-yl]sulfonyl-3-(hydroxymethyl)-3a,4-dihydro-3H-oxazolo[4,3-c][1,4]benzoxazin-1-one], the results for the MIC in assay [1] and in assay [2] were 0.24 µg/mL (≈ 0.39 µM) and 0.241 µg/mL (≈ 0.391 µM), respectively. For `NC1CC(=O)N2c3ccc(S(=O)(=O)N4CCN(c5cc(C(F)(F)C6COCCO6)cc(Cl)n5)CC4)cc3OCC12` (stereo not shown) [Example 008, 3-Amino-7-[4-[6-chloro-4-[1,4-dioxan-2-yl(difluoro)methyl]-2-pyridyl]piperazin-1-yl]sulfonyl-2,3,3a,4-tetrahydropyrrolo[2,1-c][1,4]benzoxazin-1-one], in that order: 0.5 µg/mL (≈ 0.833 µM) and 0.5 µg/mL (≈ 0.833 µM). For `Cc1cc(C(F)(F)F)nc(N2CCN(S(=O)(=O)c3ccc4c(c3)OCC3CCC(=O)N43)CC2)n1` (stereo not shown) [Example 011, 7-[4-[4-Methyl-6-(trifluoromethyl)pyrimidin-2-yl]piperazin-1-yl]sulfonyl-2,3,3a,4-tetrahydropyrrolo[2,1-c][1,4]benzoxazin-1-one] the same measures were 1.4 µg/mL (≈ 2.81 µM) and 2.87 µg/mL (≈ 5.77 µM).

Take `O=C1CCC2COc3cc(S(=O)(=O)N4CCN(c5cc(C(F)(F)F)cc(Cl)n5)CC4)ccc3N12` (stereo not shown) [Example 012, 7-[4-[6-Chloro-4-(trifluoromethyl)-2-pyridyl]piperazin-1-yl]sulfonyl-2,3,3a,4-tetrahydropyrrolo[2,1-c][1,4]benzoxazin-1-one]: in assay [1], the MIC was determined as 0.61 µg/mL (≈ 1.18 µM).

`Nc1ccc(S(=O)(=O)c2cc(Cl)nc(N3CCN(S(=O)(=O)c4ccc5c(c4)OCC4CCC(=O)N54)CC3)c2)cc1` (stereo not shown) [Example 013, 7-[4-[4-(4-Aminophenyl)sulfonyl-6-chloro-2-pyridyl]piperazin-1-yl]sulfonyl-2,3,3a,4-tetrahydropyrrolo[2,1-c][1,4]benzoxazin-1-one]: the minimal inhibitory concentration (MIC) came to 0.47 µg/mL (≈ 0.778 µM) in assay [1] and 0.24 µg/mL (≈ 0.397 µM) in assay [2]. For `Nc1ccc(S(=O)(=O)c2cc(Br)nc(N3CCN(S(=O)(=O)c4ccc5c(c4)OCC4CCC(=O)N54)CC3)c2)cc1` (stereo not shown) [Example 014, 7-[4-[4-(4-Aminophenyl)sulfonyl-6-bromo-2-pyridyl]piperazin-1-yl]sulfonyl-2,3,3a,4-tetrahydropyrrolo[2,1-c][1,4]benzoxazin-1-one], in that order: 0.51 µg/mL (≈ 0.786 µM) and 0.51 µg/mL (≈ 0.786 µM).

As to `Cc1cc(C(F)(F)F)nc(N2CCN(S(=O)(=O)c3ccc4c(c3)OC[C@@H]3[C@H](CO)OC(=O)N43)CC2)n1` [Example 015, (3R,3aR)-3-(hydroxymethyl)-7-[4-[4-methyl-6-(trifluoromethyl)pyrimidin-2-yl]piperazin-1-yl]sulfonyl-3a,4-dihydro-3H-oxazolo[4,3-c][1,4]benzoxazin-1-one], the minimal inhibitory concentration (MIC) in assay [1] stood at 0.5 µg/mL (≈ 0.944 µM); in assay [2], 0.76 µg/mL (≈ 1.44 µM).

For `CN1CCC(C(F)(F)c2cc(Cl)nc(N3CCN(S(=O)(=O)c4ccc5c(c4)OCC4CCC(=O)N54)CC3)c2)CC1` (stereo not shown) [Example 016, 7-[4-[6-Chloro-4-[difluoro-(1-methyl-4-piperidyl)methyl]-2-pyridyl]piperazin-1-yl]sulfonyl-2,3,3a,4-tetrahydropyrrolo[2,1-c][1,4]benzoxazin-1-one], the MIC in assay [1] was determined as 1.9 µg/mL (≈ 3.19 µM); in assay [2], 1.86 µg/mL (≈ 3.12 µM). For `NC[C@H]1OC(=O)N2c3ccc(S(=O)(=O)N4CCN(c5cc(C(F)(F)[C@@H]6COCCO6)cc(Cl)n5)CC4)cc3OC[C@@H]12` [Example 021, (3R,3aS)-3-(Aminomethyl)-7-[4-[6-chloro-4-[[(2S)-1,4-dioxan-2-yl]-difluoro-methyl]-2-pyridyl]piperazin-1-yl]sulfonyl-3a,4-dihydro-3H-oxazolo[4,3-c][1,4]benzoxazin-1-one] the same measures were 0.26 µg/mL (≈ 0.422 µM) and 0.51 µg/mL (≈ 0.828 µM). For `NC[C@@H]1OC(=O)N2c3ccc(S(=O)(=O)N4CCN(c5cc(C(F)(F)[C@@H]6COCCO6)cc(Cl)n5)CC4)cc3OC[C@H]12` [Example 022, (3S,3aR)-3-(aminomethyl)-7-[4-[6-chloro-4-[[(2S)-1,4-dioxan-2-yl]-difluoro-methyl]-2-pyridyl]piperazin-1-yl]sulfonyl-3a,4-dihydro-3H-oxazolo[4,3-c][1,4]benzoxazin-1-one], in that order: 0.44 µg/mL (≈ 0.714 µM) and 0.3 µg/mL (≈ 0.487 µM). For `NC[C@@H]1OC(=O)N2c3ccc(S(=O)(=O)N4CCN(c5cc(C(F)(F)[C@H]6CNCCO6)cc(Cl)n5)CC4)cc3OC[C@@H]12` [Example 023, (3S,3aS)-3-(aminomethyl)-7-[4-[6-chloro-4-[difluoro-[(2R)-morpholin-2-yl]methyl]-2-pyridyl]piperazin-1-yl]sulfonyl-3a,4-dihydro-3H-oxazolo[4,3-c][1,4]benzoxazin-1-one] the same measures were 0.33 µg/mL (≈ 0.537 µM) and 0.33 µg/mL (≈ 0.537 µM).

(Values after patent US20260308172A1, “TRICYCLIC COMPOUNDS FOR TREATMENT OF BACTERIAL INFECTIONS” (priority 2023, published 2026).)
